# Reference: patent publication EP4711356A1, “TETRAHYDROCARBAZOLE DERIVATIVE, PHARMACEUTICAL COMPOSITION, AND USE THEREOF” (Nain Biotech (Hangzhou) Co., Ltd., priority 2023, dated 2024)
# Tested on: HeLa cells
# Assay: Cell-based pharmacodynamic assay (CellTiter-Glo proliferation inhibition), HeLa
# Details: human cervical cancer HeLa cells; 72 hours incubation; CellTiter-Glo luminescence; read-out: IC50 against HeLa cells
# Summary of the method: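 Cells seeded overnight in line-specific media with FBS, then dosed from DMSO stocks (20 mM stock) for 72 h at 37 °C, 5% CO2. Viability by CellTiter-Glo luminescence; inhibition normalised to DMSO and blank wells, IC50 from four-parameter fit.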
row,SMILES,IC50
1,CCOC(=O)c1cccc2[nH]c3c(c12)CCCC3=O [Compound B16],≤ 200 nM
2,Cn1ncc(-c2cccc3[nH]c4c(c23)CCCC4=O)n1 [Compound B67],≤ 200 nM
3,CCCCCC(=O)n1c2c(c3c(C(=O)OCC)cccc31)CCCC2=O [Compound C05],≤ 200 nM
4,CCOC(=O)c1cccc2c1c1c(n2C(=O)/C=C/c2ccc(OC)c(OC)c2)C(=O)CCC1 [Compound C59],≤ 200 nM
5,Cn1cc(-c2cccc3c2c2c(n3C(=O)C3CC(F)(F)C3)C(=O)CCC2)cn1 [Compound C60],≤ 200 nM
6,Cc1ccc2[nH]c3c(c2c1)CCCC3=NCC(C)(C)O [Compound E03],≤ 500 nM
7,Cc1ccc2[nH]c3c(c2c1)CCCC3=N[C@@H]1CCNC1 [Compound E04R],≤ 200 nM
8,Cc1ccc2[nH]c3c(c2c1)CCCC3=N[C@@H]1CCN(C)C1 [Compound E05R],≤ 200 nM
9,Cc1ccc2[nH]c3c(c2c1)CCCC3=NCC1(C)NC(=O)NC1=O (stereo not drawn) [Compound E07],≤ 200 nM
10,Cc1ccc2[nH]c3c(c2c1)CCCC3=NC1(CO)CCC1 [Compound E08],≤ 200 nM
11,Cc1ccc2[nH]c3c(c2c1)CCCC3=NC1CC(C(N)=O)C1 (stereo not drawn) [Compound E09],≤ 500 nM
12,Cc1ccc2[nH]c3c(c2c1)CCCC3=NCC(=O)OC(C)(C)C [Compound E10],≤ 200 nM
13,Cc1ccc2[nH]c3c(c2c1)CCCC3=NCCNCCO [Compound E11],≤ 200 nM
14,Cc1ccc2[nH]c3c(c2c1)CCCC3=NC1CCN(C)CC1 [Compound E13],≤ 200 nM
15,Cc1ccc2[nH]c3c(c2c1)CCCC3=NC(CO)CO [Compound E14],≤ 200 nM
16,COC(=O)c1cccc2[nH]c3c(c12)CCCC3=NCC(=O)OC(C)(C)C [Compound E29],≤ 200 nM
17,COC(=O)c1cccc2[nH]c3c(c12)CCCC3=NCCO [Compound E30],≤ 200 nM
18,Cc1ccc2[nH]c3c(c2c1)CCCC3=NCCOCCO [Compound E31],≤ 200 nM
19,[2H]C([2H])([2H])c1ccc2[nH]c3c(c2c1)CCCC3=NCC(=O)OC(C)(C)C [Compound E32],≤ 200 nM
20,COc1ccc2[nH]c3c(c2c1)CCCC3=NCC(=O)OC(C)(C)C [Compound E33],≤ 500 nM
21,COC(=O)c1ccc2[nH]c3c(c2c1)CCCC3=NCC(=O)OC(C)(C)C [Compound E34],≤ 200 nM
22,COc1ccc2[nH]c3c(c2n1)CCCC3=NCC(=O)OC(C)(C)C [Compound E35],≤ 200 nM
23,COC(=O)c1ccc2[nH]c3c(c2c1)CCCC3=NCCO [Compound E36],≤ 200 nM
24,COc1ccc2[nH]c3c(c2n1)CCCC3=NCCO [Compound E37],≤ 200 nM

# Results, then the compound that gave them:
row,IC50,SMILES
1,≤ 200 nM,Cc1ccc2[nH]c3c(c2c1)CCC/C3=N\[C@@H](Cc1ccccc1)C(=O)OC(C)(C)C [Compound E38]
2,≤ 200 nM,Cc1ccc2[nH]c3c(c2c1)CCCC3=NC(CC(N)=O)C(=O)OC(C)(C)C (stereo not drawn) [Compound E39]
3,≤ 200 nM,Cc1ccc2[nH]c3c(c2c1)CCCC3=NC(Cc1ccc(O)cc1)C(=O)OC(C)(C)C (stereo not drawn) [Compound E40]
4,≤ 200 nM,Cc1ccc2[nH]c3c(c2c1)CCCC3=NC1CCN(CC(F)(F)F)CC1 [Compound E42]
5,≤ 200 nM,Cc1ccc2[nH]c3c(c2c1)CCCC3=NC1CCN(S(=O)(=O)C(C)C)CC1 [Compound E43]
6,≤ 500 nM,Cc1ccc2[nH]c3c(c2c1)CCCC3=NC(C)C(=O)OC(C)(C)C (stereo not drawn) [Compound E44]
7,≤ 200 nM,COCCN=C1CCCc2c1[nH]c1ccc(C)cc21 [Compound E45]
8,≤ 200 nM,COCCOC1CCC(N=C2CCCc3c2[nH]c2ccc(C)cc32)CC1 (stereo not drawn) [Compound E46]
9,≤ 200 nM,COC(=O)c1cccc2[nH]c3c(c12)CCCC3=NC(C)C [Compound E47]
10,≤ 200 nM,CCN=C1CCCc2c1[nH]c1cccc(C(=O)OC)c21 [Compound E48]
11,≤ 500 nM,Cc1ccc2[nH]c3c(c2c1)C(C)CCC3=NCC(=O)OC(C)(C)C (stereo not drawn) [Compound E49]
12,≤ 200 nM,Cc1ccc2[nH]c3c(c2n1)CCCC3=NCCO [Compound E50]
13,≤ 200 nM,Cc1cccc2[nH]c3c(c12)CCCC3=NCC(=O)OC(C)(C)C [Compound E52]
14,≤ 200 nM,Cc1cccc2[nH]c3c(c12)CCCC3=NCCO [Compound E54]
15,≤ 200 nM,Cc1ccc2[nH]c3c(c2c1)CCCC3=NC(CC(=O)OC(C)(C)C)C(=O)OC(C)(C)C (stereo not drawn) [Compound E55]
16,≤ 200 nM,Cc1ccc2[nH]c3c(c2c1)CCCC3=NC(C(=O)OC(C)(C)C)C(C)C (stereo not drawn) [Compound E56]
17,≤ 200 nM,CCCCCN=C1CCCc2c1[nH]c1ccc(C)cc21 [Compound E57]
18,≤ 200 nM,COC(=O)c1cccc2[nH]c3c(c12)CCCC3=NCC(C)(C)O [Compound E61]
19,≤ 200 nM,COC(=O)c1cccc2[nH]c3c(c12)CCCC3=NC1CCN(C)CC1 [Compound E62]
20,≤ 500 nM,CCC(CO)N=C1CCCc2c1[nH]c1ccc(C)cc21 (stereo not drawn) [Compound E63]
21,≤ 500 nM,CCC(CO)N=C1CCCc2c1[nH]c1ccc(C)cc21 (stereo not drawn) [Compound E64]
22,≤ 200 nM,Cc1ccc2[nH]c3c(c2c1)CCCC3=NC1CCN(CC(F)(F)F)CC1C (stereo not drawn) [Compound E65]
23,≤ 200 nM,Cc1ccc2[nH]c3c(c2c1)CCCC3=NC1CCN(S(=O)(=O)C(C)C)CC1C (stereo not drawn) [Compound E66]
24,≤ 200 nM,Cc1ccc2[nH]c3c(c2c1)CCCC3=NCCNC(=O)OC(C)(C)C [Compound E67]
25,≤ 200 nM,Cc1ccc2[nH]c3c(c2c1)CCCC3=NCCN [Compound E68]
26,≤ 200 nM,COC(=O)c1cccc2[nH]c3c(c12)CCCC3=NC(C)C(F)(F)F (stereo not drawn) [Compound E69]
27,≤ 200 nM,COC(=O)c1cccc2[nH]c3c(c12)CCCC3=NC(C)C(F)(F)F (stereo not drawn) [Compound E70]
28,≤ 200 nM,CSCCC(N=C1CCCc2c1[nH]c1ccc(C)cc21)C(=O)OC(C)(C)C (stereo not drawn) [Compound E71]
29,≤ 200 nM,CN=C1CCCc2c1[nH]c1cccc(C(=O)OC)c21 [Compound E72]

# Tested on: not listed separately
# Assay: Cell-based pharmacodynamic assay (CellTiter-Glo proliferation inhibition), tumor cell line panel
# Details: Homo sapiens; one range stated for all 22 listed ovarian, liver, lung, melanoma, pancreatic, colorectal, renal, prostate, gastric, tongue, leukemia and rhabdomyosarcoma cell lines
# Experimental: Complete media such as RPMI 1640 (Gibco, A1049101), EMEM (ATCC, 30-2003), DMEM (Gibco, C11995500CP), McCoy's 5A (Gibco, 16600082), and F-12K (ATCC, 30-2004) were prepared by supplementing with varying concentrations of FBS (Biological Industries, 04-002-1A) and 1% Penicillin-Streptomycin (Gibco, 15140122) and was thoroughly mixed. Tumor cell lines including HeLa (ATCC, CCL-2; EMEM + 10% FBS), TOV-21G (Cobioer, CBP60292; 1:1 mixture of MCDB 105 and Medium 199 + 15% FBS), OVCAR-3 (ATCC, HTB-161; RPMI 1640 + 20% FBS + 0.01 mg/ml bovine insulin), SK-OV-3 (ATCC, HTB-77; McCoy's 5A + 10% FBS), A2780 (Cobioer, CBP60283; RPMI 1640 + 10% FBS), OC316 (Cobioer, CBP60620; RPMI 1640 + 10% FBS), HuH-7 (Cobioer, CBP60202; DMEM + 10% FBS), SNU-398 (ATCC, CRL-2233; RPMI 1640 + 10% FBS), NCI-H2286 (ATCC, CRL-5938; RPMI 1640 + 5% FBS), NCI-H82 (ATCC, HTB-175; RPMI 1640 + 10% FBS), A549 (ATCC, CCL-185; F-12K + 10% FBS), SK-MEL-3 (ATCC, HTB-69; McCoy's 5A + 15% FBS), PSN-1 (Cobioer, CBP61215; RPMI 1640 + 10% FBS), LoVo (ATCC, CCL-229; F-12K + 10% FBS), DLD-1 (ATCC, CCL-221; RPMI 1640 + 10% FBS), HCT-15 (ATCC, CCL-225; RPMI 1640 + 10% FBS), A498 (ATCC, HTB-44; EMEM + 10% FBS), LNCaP (ATCC, CRL-1740; RPMI 1640 + 10% FBS), SNU-1 (ATCC, CRL-5971; RPMI 1640 + 10% FBS), SCC-9 (Cobioer, CBP60428; DMEM/F12 (1:1) + 10% FBS + 0.5 mM sodium pyruvate + 400 ng/ml hydrocortisone), SU-DHL-5 (ATCC, CRL-2958; RPMI 1640 + 10% FBS), Toledo (ATCC, CRL-2631; RPMI 1640 + 10% FBS), and SJCRH30 (ATCC, CRL-2061; RPMI 1640 + 10% FBS) were thawed. Cells were passaged approximately twice, and those in good growth condition (typically passages 4-6) were selected for experiments. The medium was aspirated, and the cells were washed once with 0.25% trypsin (Invitrogen, 25200-072). The waste liquid was discarded, and 3 mL of fresh trypsin was added to the culture flask for digestion. […] The plates were placed in an Enspire reader (luminescence measurement time: 0.5 s) to record luminescence results. […]
row,IC50,SMILES
1,200 to 10000 nM,CCOC(=O)c1cccc2[nH]c3c(c12)CCCC3=O [Compound B16]
2,200 to 10000 nM,Cn1ncc(-c2cccc3[nH]c4c(c23)CCCC4=O)n1 [Compound B67]
3,200 to 10000 nM,CCCCCC(=O)n1c2c(c3c(C(=O)OCC)cccc31)CCCC2=O [Compound C05]

# Tested on: HeLa cell line
# Assay: not given
# Details: compared to the control drug ellipticine; Tunbridge et al., 2013; cited from earlier work
row,SMILES,inhibitory activity against the HeLa cell line
1,COc1cc2c(c(N)c1OC)C(=O)/C(=C\c1cc(C)c(O)c(C)c1)C2 [indanocine],superior inhibitory activity
